Measurements: US11098054B2, “Englerin derivatives for treatment of cancer” (The United States of America,as represented by the …, priority 2017, dated 2021)

Experiments:
Format in all cases: cell-based
RXF 393 = test: NCI 60-cell line protocol, RXF 393 (renal); conditions: Homo sapiens, 48 h, two days drug exposure, SRB endpoint, read-out: GI-50 value
Protocol: (§1) Samples containing exemplary compounds of formulas (Ia)-(Ig) were tested in the standard National Cancer Institute 60-cell line protocol. First, they were tested against all 60 cell lines in a single final concentration of 10 micromolar. Then, they were separately tested in five 10-fold dilutions. The drug exposure was two days, with an SRB endpoint.

[1] = system: cancer cell lines within the NCI 60 cell assay; test: NCI 60 cell assay, cancer cell line panel; conditions: Homo sapiens, average over the nine cell lines of Table 1, read-out: Average GI-50
Protocol: as §1

786-0 = test: NCI 60-cell line protocol, 786-0 (renal); conditions: Homo sapiens, 48 h, two days drug exposure, SRB endpoint, read-out: GI-50 value
Protocol: as §1

SN12C = test: NCI 60-cell line protocol, SN12C (renal); conditions: Homo sapiens, 48 h, two days drug exposure, SRB endpoint, read-out: GI-50 value
Protocol: as §1

HS 578T = test: NCI 60-cell line protocol, HS 578T (breast); conditions: Homo sapiens, 48 h, two days drug exposure, SRB endpoint, read-out: GI-50 value
Protocol: as §1

OVCAR-8 = test: NCI 60-cell line protocol, OVCAR-8 (ovarian); conditions: Homo sapiens, 48 h, two days drug exposure, SRB endpoint, read-out: GI-50 value
Protocol: as §1

UO-31 = test: NCI 60-cell line protocol, UO-31 (renal); conditions: Homo sapiens, 48 h, two days drug exposure, SRB endpoint, read-out: GI-50 value
Protocol: as §1

A498 = test: NCI 60-cell line protocol, A498 (renal); conditions: Homo sapiens, 48 h, two days drug exposure, SRB endpoint, read-out: GI-50 value
Protocol: as §1

BT-549 = test: NCI 60-cell line protocol, BT-549 (breast); conditions: Homo sapiens, 48 h, two days drug exposure, SRB endpoint, read-out: GI-50 value
Protocol: as §1

ACHN = test: NCI 60-cell line protocol, ACHN (renal); conditions: Homo sapiens, 48 h, two days drug exposure, SRB endpoint, read-out: GI-50 value
Protocol: as §1

Row | Compound | GI50 (RXF 393) [nM] | GI50 [1] [nM] | GI50 (786-0) [nM] | GI50 (SN12C) [nM] | GI50 (HS 578T) [nM] | GI50 (OVCAR-8) [nM] | GI50 (UO-31) [nM] | GI50 (A498) [nM] | GI50 (BT-549) [nM] | GI50 (ACHN) [nM]
1 | C[C@@H]1CC[C@@H]2C1[C@H](OC(=O)/C=C/c1ccccc1)C1(C3CCCCC3)C[C@@H](NC(=O)CO)C2(C)O1 (stereo partly shown) [(Ia)] | 3310 | 8030 | 14800 | 11500 | 2820 | 16200 | 4790 | 2190 | 13200 | 3470
2 | C[C@@H]1CC[C@@H]2C1[C@H](OC(=O)/C=C/c1ccccc1)[C@]1(C3CCCCC3)C[C@@H](OC(=O)CO)[C@@]2(C)O1 (stereo partly shown) [(Ib)] | 78 | 217 | 1180 | 85 | 24 | 513 | 15 | 19 | 34 | 10
3 | C[C@@H]1CC[C@@H]2C1[C@H](OC(=O)/C=C/c1ccccc1)[C@]1(c3ccccc3)C[C@@H](OC(=O)CO)[C@@]2(C)O1 (stereo partly shown) [(Ic)] | 251 | 2260 | 11700 | 537 | 112 | 6760 | 155 | 191 | 407 | 178
4 | CC1CC[C@@H]2C1[C@H](OC(=O)/C=C/C1CCCCC1)[C@]1(C3CCCCC3)C[C@@H](OC(=O)CO)[C@@]2(C)O1 (stereo partly shown) [(Id)] | 34 | 2550 | 12000 | 32 | 16 | 10700 | 29 | 21 | 55 | 22
5 | C/C(=C\C(=O)O[C@H]1C2C(C)CC[C@H]2[C@]2(C)O[C@@]1(C1CCCCC1)C[C@H]2OC(=O)CO)c1ccccc1 (stereo partly shown) [(Ie)] | 79 | 1080 | 5130 | 23 | 10 | 4270 | 62 | 16 | 120 | 15
6 | CC1CC[C@@H]2C1[C@H](OC(=O)c1ccc3ccccc3c1)[C@]1(C3CCCCC3)C[C@@H](OC(=O)CO)[C@@]2(C)O1 (stereo partly shown) [(If)] | 71 | 1250 | 5370 | 52 | 23 | 5620 | 40 | 19 | 71 | 19
7 | Cc1c(C(=O)O[C@H]2C3C(C)CC[C@H]3[C@]3(C)O[C@@]2(C2CCCCC2)C[C@H]3OC(=O)CO)ccc2ccccc12 (stereo partly shown) [(Ig)] | 166 | 2130 | 6460 | 158 | 17 | 6610 | 407 | 17 | 5250 | 59
